According to the NIST ThermoML archive (doi:10.1016/j.jct.2009.10.009):
“And” between values parts separate entries of the source, which are not always exact repeats. Identical values can stand only once.

Settings: Crystal, Calculated from knudsen effusion weight loss

CC(C)(C)c1cc(C=O)c(O)c(C(C)(C)C)c1 [3,5-di-tert-butyl-2-hydroxybenzaldehyde]
Settings	vapor or sublimation pressure
296.28 K	0.000151 kPa and 0.000143 kPa and 0.00014 kPa
298.16 K	0.000193 kPa and 0.00018 kPa and 0.000176 kPa
300.17 K	0.000248 kPa and 0.000237 kPa and 0.000234 kPa
302.18 K	0.000304 kPa and 0.0003 kPa and 0.000322 kPa
304.15 K	0.000408 kPa and 0.000382 kPa and 0.000378 kPa
306.37 K	0.000542 kPa and 0.000514 kPa and 0.000505 kPa
308.18 K	0.000673 kPa and 0.000631 kPa and 0.00062 kPa
310.17 K	0.000861 kPa and 0.000812 kPa and 0.000801 kPa
312.2 K	0.001099 kPa and 0.001032 kPa and 0.001014 kPa

O=Cc1cccc(O)c1 [3-hydroxybenzaldehyde]
Settings	vapor or sublimation pressure
312.17 K	0.000139 kPa and 0.000134 kPa and 0.000131 kPa
314.2 K	0.000177 kPa and 0.000171 kPa and 0.000168 kPa
316.2 K	0.000233 kPa and 0.00022 kPa and 0.000216 kPa
318.19 K	0.00028 kPa and 0.000275 kPa and 0.000288 kPa
320.18 K	0.000377 kPa and 0.000358 kPa and 0.000353 kPa
322.2 K	0.000462 kPa and 0.000453 kPa and 0.00044 kPa
324.17 K	0.000581 kPa and 0.000557 kPa and 0.000542 kPa
326.22 K	0.000738 kPa and 0.000712 kPa and 0.000694 kPa
328.18 K	0.000907 kPa and 0.000871 kPa and 0.000849 kPa
330.19 K	0.001139 kPa and 0.00109 kPa and 0.001058 kPa

O=Cc1ccc(O)cc1 [4-hydroxybenzaldehyde]
Settings	vapor or sublimation pressure
324.2 K	0.000157 kPa and 0.000151 kPa and 0.000149 kPa
326.16 K	0.000197 kPa and 0.000193 kPa and 0.000187 kPa
328.31 K	0.000252 kPa and 0.000244 kPa and 0.000242 kPa
330.18 K	0.000303 kPa and 0.000296 kPa and 0.000308 kPa
332.16 K	0.000382 kPa and 0.000375 kPa and 0.00037 kPa
334.18 K	0.000477 kPa and 0.000472 kPa and 0.000463 kPa
336.22 K	0.000603 kPa and 0.000602 kPa and 0.000583 kPa
338.34 K	0.000756 kPa and 0.000738 kPa and 0.000728 kPa
340.17 K	0.000926 kPa and 0.000905 kPa and 0.000886 kPa
341.3 K	0.001019 kPa and 0.001005 kPa and 0.000984 kPa
